Source: patent US6599541B1, “Composition for treatment of drug resistant bacterial infections and a method of treating drug resistant bacterial infections” (priority 1999, dated 2003)
In brackets after ≈: the same amount, converted by molar mass. Several values for one entry are separate records, joined by “and”; a condition that tells them apart may be missing. Equal values may be shown once. Read-outs that look alike come from different tables or passages of the source.

Columns and labels:
Staphylococcus aureus [1] = assay: Broth Macro Dilution Test, MIC and MBC; format: cell-based; settings: Example 12: strain from non-healing burn wound swab culture, antibiotic alone
Description: (§1) This was done by estimation of the Minimum Inhibitory Concentration (MIC) and Minimum Bactericidal Concentration (MBC) on the selected isolates by a Broth Macro Dilution Test.
(§2) Cation Supplemented Mueller Hinton Broth was used as medium for all organisms excepting for β haemolytic streptococci for which, Todd Hewit's Broth was used as medium.
(§3) The following concentrations of antibiotics were tested to determine MIC and MBC.
(§4) A minimum inhibitory concentration is the lowest level of antibiotic needed to cause an inhibition to bacterial growth in culture medium whereas, the minimum bactericidal concentration is the lowest concentration of antibiotic to achieve a 100% killing of bacteria. Thus, these two values are the practical indices of intensity of bacterial resistance to a given antibiotic. On the other hand, a break-even point of any antibiotic indicates the attainable blood levels after an administration of full dose, in human/animal body. Thus, this point indicates the practical dosage of administering any given antibiotic effectively and beyond this point, even if an antibiotic is found to act effectively in experimental situation—such dose cannot be administered in a clinical situation.

Staphylococcus aureus [2] = assay: Broth tube test of NE with antibiotic at break point, percentage of killing; format: cell-based; settings: Example 12 strain; antibiotic with NE, uniform for all the concentrations of NE
Description: (§5) Since all the study isolates are resistant to the concerned antibiotics, each antibiotic is taken at its breakpoint concentration, (the highest serum concentration of that particular antibiotic reached after the maximum therapeutic dose in-vivo). The break points for various antibiotics are as follows:
(§6) Preparation of Neem Extract: Stock solution of neem extract (1 mg/ml) was prepared, filtered and autoclaved. It was used in 4 concentrations—1000 μg/ml; 500 μg/ml; 250 μg/ml; 125 μg/ml.
(§7) A set of four tubes with variable concentrations of the extract is prepared and to each of these tubes, the break point concentration of antibiotics is added. Now, these sets are inoculated with the study isolate in the same manner as per the broth dilution procedure. A set of six controls is inoculated with each isolate—in parallel with the main experiment.
(§8) 2. Only antibiotic solution
(§9) 3. Medium and antibiotic solution with inoculum
(§10) 5. Only Neem extract at 250 μg/ml
(§11) 6. Medium with Neem Extract and inoculum
(§12) Reading the test All the tests and control tubes are observed for visible turbidity of growth first. Since all the study isolates were earlier confirmed to be resistant to the antibiotics, the bacterial growth is expected at the breakpoint concentration of the antibiotic. Any reduction in the turbidity as compared to the control tube no. 3 is noted as a possible additive or synergistic effect of the neem extract with the antibiotic. In absence of such effect, the tubes may show growth matching with the control no. 4.
(§13) In case of a positive result, further sub-culturing was taken up, on solid media for colony counts with a calibrated loop. The colony counts could be noted by a semi quantitative method as 101 to 10^5 CFU/ml (Colony forming units). This is finally expressed as the percentage of killing as compared to the colony count obtained with control no. 4. Usually control tubes no. 3, 4 and 6 had similar colony counts.

Proteus mirabilis = assay: Agar Dilution Method of Sensitivity testing, NE + antibiotic; format: cell-based; settings: resistant Proteus mirabilis strains, 48 hours
Description: (§14) Two kinds of investigations were carried-out using these bacterial isolates—using an Agar Dilution Method of Sensitivity testing.
(§15) i) The culture medium (Mueller Hinton Agar) was melted and distributed into a number of test tubes.
(§16) ii) The stock solution of NE was dispensed into these test tubes in four different concentrations viz.
(§17) iii) In the same medium, one of the antibiotics under investigation was also added so as to provide a variable concentration (at break-even point concentration) as described below:
(§18) iv) The culture medium containing NE extract+the antibiotic were poured into petri dishes and allowed to solidify.
(§19) v) The resistant bacterial strains were inoculated onto these plates, incubated for 48 hours and the growth patterns were studied on each plate.
The sensitization effect of NE was also examined on Proteus mirabilis strains resistant to Penicillin derivatives and quinolone derivative antibiotics.

Escherichia coli = assay: Agar Dilution Method of Sensitivity testing, NE alone and NE + antibiotic; format: cell-based; settings: 37 resistant E. coli strains, 48 hours
Description: as §14
(§20) i) To ascertain whether, NE can work as an antibacterial substance on its own. For this purpose, a stock-solution of NE was prepared and was sterilized as described in the preliminary experiments.
(§21) ii) This stock-solution was dispensed into the culture medium (Mueller Hinton Agar) so as to provide while; the medium was in liquid form. Four different concentrations of NE, viz.
(§22) iii) This medium was poured into petri dishes and allowed to solidify. Resistant cultures were inoculated on to these plates and after incubation for 48 hours, the growth patterns were assessed.
(§23) iv) The experiments were run in triplicate, for each concentration—as per standard practices of microbiological testing procedures.
as §15, §16, §17, §18, §19

Mixed Infections = assay: Clinical study of NE tablets + antibiotic in non-responding infections
Klebsiella pneumoniae = assay: Agar Dilution Method of Sensitivity testing, NE alone and NE + antibiotic; format: cell-based; settings: 41 resistant K. pneumoniae strains, 48 hours
Description: as §14, §20, §21, §22, §23, §15, §16, §17, §18, §19
Under the same series of investigations, sensitization effect of NE was evaluated on resistant isolates of Klebsiella pneumoniae.

Staphylococcus aureus [3] = assay: as above; format: cell-based; settings: for Growth Patterns after addition of NE: no. of cultures +++ (growth) / Growth Patterns after addition of NE: no. of cultures −−− (inhibition of growth): resistant S. aureus cultures, 48 hours
Description: as §14, §20, §21, §22, §23, §15, §16, §17, §18, §19
These cultures were obtained various clinical samples, such as sputum, non-healing infected wounds, throat swabs etc.

[4] = system: respiratory/surgical infections by bacteria resistant to the antibiotic; assay: Clinical study of NE tablets + antibiotic in non-responding infections, all cases; settings: NE tablets 100 mg twice a day + that antibiotic, 1-3 weeks
Staphylococcus aureus [5] = assay: Clinical study of NE tablets + antibiotic in non-responding infections; settings: NE tablets + antibiotic to which resistant
[6] = highest serum concentration reached after the maximum therapeutic dose in-vivo; cited from earlier work
[7] = system: β-haemolytic streptococci; assay: Broth Macro Dilution Test, MIC and MBC; format: cell-based; settings: antibiotic alone, read-out: minimum inhibitory concentration (MIC)
Description: as §1, §2, §3, §4

[8] = system: β-haemolytic streptococci; assay: Broth tube test of NE with antibiotic at break point, percentage of killing; format: cell-based; settings: for bacterial growth in control tubes: NE and antibiotic added individually
Description: as §5, §6, §7, §8, §9, §10, §11, §12, §13

[9] = antibiotic at break-even point + NE 125 μg/mL
[10] = antibiotic at break-even point + NE 250 μg/mL
[11] = antibiotic at break-even point + NE 500 μg/mL
[12] = antibiotic at break-even point + NE 1000 μg/mL
[13] = Respiratory Infections, NE tablets + antibiotic to which resistant
[14] = all mixed infections resistant to the antibiotic, NE tablets + antibiotic

CC1(C)S[C@@H]2[C@H](NC(=O)[C@H](N)c3ccccc3)C(=O)N2[C@H]1C(=O)O [Ampicillin]
MBC (Staphylococcus aureus [1]): > 128 mg/L | MIC (Staphylococcus aureus [1]): 64 mg/L (≈ 183 µM) | killing (Staphylococcus aureus [2]): 80% and 70% | Growth Patterns after addition of NE: no. of cultures +++ (growth) (Proteus mirabilis; [9]): 7 | Growth Patterns after addition of NE: no. of cultures −−− (inhibition of growth) (Proteus mirabilis; [9]): 3 | Growth Patterns after addition of NE: no. of cultures +++ (growth) (Proteus mirabilis; [10]): 7 | Growth Patterns after addition of NE: no. of cultures −−− (inhibition of growth) (Proteus mirabilis; [10]): 3 | Growth Patterns after addition of NE: no. of cultures +++ (growth) (Proteus mirabilis; [11]): 7 | Growth Patterns after addition of NE: no. of cultures −−− (inhibition of growth) (Proteus mirabilis; [11]): 3 | Growth Patterns after addition of NE: no. of cultures +++ (growth) (Proteus mirabilis; [12]): 7 | Growth Patterns after addition of NE: no. of cultures −−− (inhibition of growth) (Proteus mirabilis; [12]): 3 | Growth Patterns after addition of NE: no. of cultures +++ (growth) (Escherichia coli; [9]): 31 | Growth Patterns after addition of NE: no. of cultures −−− (inhibition of growth) (Escherichia coli; [9]): 6 | Growth Patterns after addition of NE: no. of cultures +++ (growth) (Escherichia coli; [10]): 31 | Growth Patterns after addition of NE: no. of cultures −−− (inhibition of growth) (Escherichia coli; [10]): 6 | Growth Patterns after addition of NE: no. of cultures +++ (growth) (Escherichia coli; [11]): 31 | Growth Patterns after addition of NE: no. of cultures −−− (inhibition of growth) (Escherichia coli; [11]): 6 | Growth Patterns after addition of NE: no. of cultures +++ (growth) (Escherichia coli; [12]): 31 | Growth Patterns after addition of NE: no. of cultures −−− (inhibition of growth) (Escherichia coli; [12]): 6 | No. of Cases Gr.-I (Mixed Infections; [13]): 1 | No. of Cases Gr.-II (Mixed Infections; [13]): 1 | No. of Cases Gr.-II (Mixed Infections; Surgical Infections, NE tablets + antibiotic to which resistant): 1 | No. of cases with effective sensitization / complete response (Mixed Infections; [14]): 2 | No. of cases with partial response (Mixed Infections; [14]): one | Growth Patterns after addition of NE: no. of cultures +++ (growth) (Klebsiella pneumoniae; [9]): 17 | Growth Patterns after addition of NE: no. of cultures −−− (inhibition of growth) (Klebsiella pneumoniae; [9]): 24 | Growth Patterns after addition of NE: no. of cultures +++ (growth) (Klebsiella pneumoniae; [10]): 17 | Growth Patterns after addition of NE: no. of cultures −−− (inhibition of growth) (Klebsiella pneumoniae; [10]): 24 | Growth Patterns after addition of NE: no. of cultures +++ (growth) (Klebsiella pneumoniae; [11]): 17 | Growth Patterns after addition of NE: no. of cultures −−− (inhibition of growth) (Klebsiella pneumoniae; [11]): 24 | Growth Patterns after addition of NE: no. of cultures +++ (growth) (Klebsiella pneumoniae; [12]): 17 | Growth Patterns after addition of NE: no. of cultures −−− (inhibition of growth) (Klebsiella pneumoniae; [12]): 24 | Growth Patterns after addition of NE: no. of cultures +++ (growth) (Staphylococcus aureus [3]; [9]): 34 | Growth Patterns after addition of NE: no. of cultures −−− (inhibition of growth) (Staphylococcus aureus [3]; [9]): 68 | Growth Patterns after addition of NE: no. of cultures +++ (growth) (Staphylococcus aureus [3]; [10]): 29 | Growth Patterns after addition of NE: no. of cultures −−− (inhibition of growth) (Staphylococcus aureus [3]; [10]): 73 | Growth Patterns after addition of NE: no. of cultures +++ (growth) (Staphylococcus aureus [3]; [11]): 26 | Growth Patterns after addition of NE: no. of cultures −−− (inhibition of growth) (Staphylococcus aureus [3]; [11]): 76 | Growth Patterns after addition of NE: no. of cultures +++ (growth) (Staphylococcus aureus [3]; [12]): 20 | Growth Patterns after addition of NE: no. of cultures −−− (inhibition of growth) (Staphylococcus aureus [3]; [12]): 82 | No. of cases with Grade-II response (complete clinical and bacteriological) [4]: 4

CC[C@H]1OC(=O)[C@H](C)[C@@H](O[C@H]2C[C@@](C)(OC)[C@@H](O)[C@H](C)O2)[C@H](C)[C@@H](O[C@@H]2O[C@H](C)C[C@H](N(C)C)[C@H]2O)[C@](C)(O)C[C@@H](C)/C(=N\OCOCCOC)[C@H](C)[C@@H](O)[C@]1(C)O [Roxythromycin]
No. of cases with Grade-II response (complete clinical and bacteriological) [4]: 2 | No. of Cases Gr.-I (Staphylococcus aureus [5]; Respiratory Infections): 1 | No. of Cases Gr-0 (Staphylococcus aureus [5]; Surgical Infections): 1 | No. of Cases Gr.-II (Staphylococcus aureus [5]; Surgical Infections): 2

CC[C@H]1OC(=O)[C@H](C)[C@@H](O[C@H]2C[C@@](C)(OC)[C@@H](O)[C@H](C)O2)[C@H](C)[C@@H](O[C@@H]2O[C@H](C)C[C@H](N(C)C)[C@H]2O)[C@](C)(O)C[C@@H](C)C(=O)[C@H](C)[C@@H](O)[C@]1(C)O [Erythromycin]
break point [6]: 4 µg/mL | MIC ([7]; Example 8: isolate from throat swab culture): 64 mg/L (≈ 87.2 µM) | MIC ([7]; Example 9: isolate from sputum culture): 32 mg/L (≈ 43.6 µM) | MBC (Staphylococcus aureus [1]): > 256 mg/L | bacterial growth in control tubes ([8]; Example 8 isolate): unhindered | bactericidal effect ([8]; Example 8 isolate, antibiotic 4 μg/ml combined with NE 1000 μg/ml): 99% | bactericidal effect ([8]; Example 8 isolate, antibiotic 4 μg/ml combined with NE 125, 250 and 500 μg/ml): 100% | bacterial growth in control tubes ([8]; Example 9 isolate): unhindered | bactericidal effect ([8]; Example 9 isolate, antibiotic at break even point combined with NE 250 μg/ml and 125 μg/ml): 99% | killing ([8]; Example 9 isolate, antibiotic at break-even point combined with NE 500 μg/ml or 1000 μg/ml): 50% | clinical strains sensitized by NE to the antibiotic (Staphylococcus aureus [3]; 102 resistant S. aureus cultures, NE + antibiotic): 50% | Growth Patterns after addition of NE: no. of cultures +++ (growth) (Staphylococcus aureus [3]; [9]): 72 | Growth Patterns after addition of NE: no. of cultures −−− (inhibition of growth) (Staphylococcus aureus [3]; [9]): 30 | Growth Patterns after addition of NE: no. of cultures +++ (growth) (Staphylococcus aureus [3]; [10]): 66 | Growth Patterns after addition of NE: no. of cultures −−− (inhibition of growth) (Staphylococcus aureus [3]; [10]): 36 | Growth Patterns after addition of NE: no. of cultures +++ (growth) (Staphylococcus aureus [3]; [11]): 61 | Growth Patterns after addition of NE: no. of cultures −−− (inhibition of growth) (Staphylococcus aureus [3]; [11]): 41 | Growth Patterns after addition of NE: no. of cultures +++ (growth) (Staphylococcus aureus [3]; [12]): 51 | Growth Patterns after addition of NE: no. of cultures −−− (inhibition of growth) (Staphylococcus aureus [3]; [12]): 51
